Assay results published in patent US20120077705A1, “Methods for Identifying Autophagy Inducing Compounds” (President and Fellows of Harvard College, priority 2007, published 2012).
Several values for one entry are separate records, joined by “and”; a condition that tells them apart may be missing. Equal entries are not always repeated. Where two headings read alike, the source gives them in different places.

Assays:
long-lived proteins = assay: Degradation of (3H) L-leucine labelled long-lived proteins in H4 cells; assay type: cell-based; conditions: relative to blank control
Excerpt: The process of autophagy is a protein degradation process, which primarily mediates the degradation of cellular organelles and long-lived proteins within the cell. Therefore, in the present experiment the detection of whether a compound promotes the degradation of long-lived proteins within the cell was used as an additional indicator of whether the tested compound induces autophagy.
DMSO was used to dilute, dissolve, and prepare a compound at different concentrations with each concentration repeated three times. A 96-well plate was inoculated with H4 cells at an appropriate density and treated with the compound for 2, 4, and 24 hours, respectively. […] One day prior to the experiment, cells were inoculated onto a 12-well plate at an appropriate density and cultured under normal conditions (DMEM +10% fetal calf serum). […] Then, a complete medium containing (3H) L-leucine was used to incubate the cells for 24 hours causing the cells to take in isotope-labeled leucine and undertake protein synthesis. After 24 hours, a complete culture medium was substituted and used to incubate the cells for 24 hours to degrade short-lived proteins. After the short-lived proteins had been degraded, a complete culture medium to which the compound had been added was substituted and used to incubate the cells. The radiation intensity of the culture medium was tested at 0, 1, 2, 4, and 24 hours, respectively. At 24 hours, the cells were collected and the intensity of the isotope within the cells was tested, and the percent of long-lived protein degradation relative to the blank control group at different times after the action of the compound was computed. Compounds that increased the degradation of long-lived proteins were selected by means oft-test.

H4-LC3 cells = assay type: cell-based
Excerpt: H4 cells were transfected with the LC3-GFP fusion protein, thereby creating, screening, and yielding an H4-LC3 cell line as a screening platform in order to perform high-content screening of 480 known bioactive compounds (ICCB known bioactive library, BIOMOL), using the following method. DMSO was used to dilute, dissolve, and prepare a compound at different concentrations with each concentration repeated three times. A 96-well plate was inoculated with H4-LC3 cells at an appropriate density and treated for 24 hours with the compound. […] If a compound affected LC3 expression or distribution, then this would be embodied precisely in the image and in the size and intensity of fluorescent spots and the like numerical values. This experiment was repeated three times, and the 72 compounds for which LC3-GFP fluorescent intensity was more than 50% greater than that of the blank control group in the three experiments were selected for analysis. Based on the number of cells determined through counting, those compounds in which cell death exceeded 30% (in comparison with the control group) were eliminated. The remaining compounds were further studied as candidate molecules.

GFP-polyQ-HA = assay: Degradation of expanded polyglutamine (GFP-polyQ-HA) in transfected H4 cells, anti-HA blot; assay type: cell-based
Description: Large-scale accumulation of misfolded protein is a prominent feature of many neurodegenerative diseases. For example, the pathogenic mechanism of Huntington's disease is that a large amount of polyglutamine (polyQ) protein accumulates in the neurons and cannot be cleared away. Tests of polyQ elimination and degradation were used in this experiment to further determine the ability if the tested compounds to induce autophagy.
The compounds selected through screening were dissolved in DMSO and diluted in a stepwise manner in complete culture medium.

LC3 II = assay: Western blot of LC3 II in H4-LC cells; assay type: cell-based
Excerpt: The autophagosome marker LC3 used in the compound-screening platform was subjected to the foregoing processing in the cytosol. Generally when the new LC3 synthesized within the cell was processed, it became cytosolic soluble LC3 I with molecular weight 18 Kd. […] The quantity of LC3 II content reflects to a certain degree the autophagic activity of a cell. Therefore, by assaying the content of LC3 II in the cell by means of the Western blot method, it is possible to further reflect the effect of the compound on autophagy.
H4-LC cells at an appropriate density were inoculated onto a 6-well plate, which was treated with a compound for 4 hours, after which the cells were collected and lysed. The protein fraction was harvested and SDS-PAGE was performed. Following electrophoresis separation the proteins were transferred to a membrane, and immunoblot analysis was performed. The cytoskeleton protein, actin, was used as an internal control.

FYVE-RFP = assay: High-content analysis of FYVE-RFP fluorescence (PI(3)P level) in H4-FYVE cell line; assay type: cell-based
Excerpt: Class III PI(3)K Vps34 is a multifunctional protein. On the one hand, it catalyzes the phosphorylation of PI to generate PI(3)P and is of key importance in the endocytic and autophagosome membrane transport processes. At the same time, a compound formed from Vps34/beclin1 is involved in the regulation of autophagy initiation signaling. Therefore, while the autophagy process is taking place, the level of PtdIns(3)P should not be expected to decrease to a significant extent. A FYVE domain is a protein structure domain composed of approximately 70 amino acid residues and containing a zinc finger protein structure; it can bind specifically with PI(3)P. Generally, PI(3)P recruits proteins containing a FYVE domain in order to bind to the membrane of cellular organelles, and participate in protein trafficking and similar processes.
H4 cells were transfected with the fusion protein FYVP-red fluorescent protein (FYVE-RFP). After transfection, the cells were screened in order to obtain a suitable H4-FYVE cell line to be used as a screening platform to perform high-volume screening of compounds, which thereby indirectly reflected the effect of the compound on autophagy. Compounds which reduced FYVE-RFP fluorescence intensity were eliminated. In this experiment, change in the intensity, fluorescence and distribution of the protein marker FYVE-RFP recruited by PI(3)P before and after treatment with the potential autophagy inducing compound was assayed by high-content microscopic analysis.
DMSO was used to dilute, dissolve, and prepare a compound at different concentrations with each concentration repeated three times. A 96-well plate was inoculated with H4-FYVE cells at an appropriate density and treated with the compound for 2, 4, and 8 hours, respectively. […] If a compound affected FYVE expression or distribution, then this would be embodied precisely in the image and in the size and intensity of fluorescent spots and other numerical values.

[1] = system: Ca2+-activated K+ channels; conditions: 10-nM penitrem A; cited from earlier work
[2] = H4 cells transfected with GFP-polyQ-HA, 24 hours, screening concentration and dilutions 1:2.5, 1:5, 1:10, FIG. 2
[3] = H4-LC cells, 4 hours, immunoblot, FIG. 1

Row | SMILES | Percent relative degradation of long-lived proteins (%) (long-lived proteins; 1 h) | Percent relative degradation of long-lived proteins (%) (long-lived proteins; 2 h) | Percent relative degradation of long-lived proteins (%) (long-lived proteins; 4 h) | Percent relative degradation of long-lived proteins (%) (long-lived proteins; 24 h) | Relative quantity of cells (%) (H4-LC3 cells; human) | polyQ degradation (GFP-polyQ-HA) | Increase of endogenous LC3 II / LC3 II/LC3 I percentage (LC3 II) | Relative fluorescent intensity of FYVE-RFP (%) (FYVE-RFP) | Blockage of Ca2+-activated K+ channels [1] | Destruction of H4 cells (H4-LC3 cells; H4 cells) | polyQ degradation (GFP-polyQ-HA; [2]) | Increase of endogenous LC3 II / LC3 II/LC3 I percentage (LC3 II; [3]) | Relative fluorescent intensity of FYVE-RFP (%) (FYVE-RFP; H4-FYVE cells, 2 h) | Relative fluorescent intensity of FYVE-RFP (%) (FYVE-RFP; H4-FYVE cells, 4 h) | Relative fluorescent intensity of FYVE-RFP (%) (FYVE-RFP; H4-FYVE cells, 8 h)
1 | COC(=O)C1=C(C)NC(C)=C(C(=O)OCCCN2CCC(c3ccccc3)(c3ccccc3)CC2)C1c1cccc([N+](=O)[O-])c1.Cl (stereo not shown) [Niguldipine] | 71.65 ± 2.68% | 107.42 ± 2.72% | 105.68 ± 2.74% | 117.85 ± 1.98% | 132.78 ± 18.11% | increased polyQ degradation | increase of endogenous LC3 II | 147.18 ± 25.39% and 148.26 ± 3.67% and 125.53 ± 2.84% |  |  |  |  |  |  | 
2 | C=C(C)[C@H]1O[C@H]2CC[C@@]3(C)[C@@](O)(CC[C@H]4[C@@H]5OC(C)(C)[C@H]6C[C@@H]7C(=C)Cc8c(Cl)cc9[nH]c(c5c9c8[C@@]76O)[C@@]43C)[C@]23O[C@@H]3[C@H]1O [Penitrem A] | 92.88 ± 2.83% | 126.09 ± 0.47% | 132.13 ± 10.01% | 141.83 ± 1.25% |  |  |  |  | 100% | does not destroy H4 cells | increased polyQ degradation | increase of endogenous LC3 II | 121.40 ± 12.66% | 87.41 ± 5.90% | 72.71 ± 5.57%
3 | COC(=O)C1=C(C)NC(C)=C(C(=O)OCCN(C)Cc2ccccc2)C1c1cccc([N+](=O)[O-])c1.Cl (stereo not shown) [Nicardipine] | 84.62 ± 4.48% | 126.59 ± 3.83% | 122.60 ± 7.70% | 121.03 ± 13.43% |  |  |  |  |  |  | increased polyQ degradation | increase of endogenous LC3 II | 132.05 ± 19.93% | 112.51 ± 10.09% | 104.77 ± 31.63%
4 | O=c1[nH]c2ccccc2n1C1CCN(CCCC(c2ccc(F)cc2)c2ccc(F)cc2)CC1 [Pimozide] | 129.13 ± 11.46% | 155.80 ± 9.22% | 152.01 ± 9.63% | 162.47 ± 3.50% |  |  |  |  |  |  | increased polyQ degradation | increase of endogenous LC3 II | 94.42 ± 4.71% | 103.96 ± 9.06% | 73.64 ± 12.18%
